“Also recorded” adds a separate entry of the source.
Legend:
[1] = system: canine left ventricle; assay: cardiac energetics (O2 consumption, mechanical efficiency) in anesthetized control and heart failure dogs; type: in vivo
Description: 3. Heart failure was induced by chronic rapid ventricular pacing at a rate of 210 bpm for 3 weeks, followed by 240 bpm for one week. This brought the dogs into heart failure with an average left ventricular end-diastolic pressure (LVEDP) of 23.5∀5.2 mm Hg. Acute pacing (140 bpm) was used to keep heart rate constant during the experiments.
b. Oxygen consumption per unit time (MVO2) in the left circumflex artery territory was calculated from the difference in oxygen saturation in simultaneously sampled coronary sinus and aortic blood, multiplied by left circumflex coronary blood flow. This, in turn, was calculated from flow velocity multiplied by left circumflex diameter. Left circumflex diameter was analyzed from a film projector (CAP 35B, Angiogram Projection System) using quantitative angiography (Cath View v1.36, Image Comm Systems).
c. The external useful work of the LV was indexed as stroke work (SW=area of pressure-volume loops). Both stroke SW and MVO2 were converted to Joules per beat (Suga, H. et al. 1983, Circ. Res. 53:306-318). Cardiac mechanical efficiency was calculated as SW/MVO2. Hemodynamic pressure-dimension data were digitized at 200 Hz and stored for subsequent analysis on a personal computer using customized software.
Isoflurane was chosen as the anesthetic because of its relatively mild and stable effect on the cardiovascular system (R M. Jones, British Journal of Anaesthesia, 56 Suppl 1:57S-69S (1984); E. I. Eger, British Journal of Anaesthesia, 56 Suppl 1:71S-99S (1984)). A doppler flow velocimeter (0.014 Cardiometrics) and a 6 Fr. angiography catheter (AL-I or JL 3.5, Cordis Laboratories Inc) were inserted through an 8 Fr sheath (Cordis) in the right femoral artery and advanced to the left circumflex coronary artery. These catheters permitted measurement of coronary flow and injection of contrast for the measurement of coronary diameter. A catheter (A2 multipurpose, 6 Fr.) was advanced from the left external jugular vein via a 7 Fr. sheath (Cordis) into the great cardiac vein for withdrawal of mixed coronary venous blood. To measure cardiac oxygen consumption, blood samples from the coronary sinus and the femoral artery were obtained simultaneously. At each time point, blood flow velocity in the left circumflex artery was measured and coronary angiography was performed.
In 4 of 11 experiments, preexisting indwelling sonomicrometer crystals, Konigsberg micromanometers, and IVC occluders (see above) were used for dimension and pressure measurements, and for acute preload reduction. In the other 7 experiments, a combined micromanometer-conductance catheter (M!illar) was advanced to the LV and positioned for continuous measurement of LV pressure and volume via a 7 Fr. sheath (Cordis) in the femoral artery. A Swan-Ganz catheter (Arrow, 7 Fr.) was advanced via a 9F sheath in the femoral vein to the pulmonary artery for measurement of cardiac output and for hypertonic saline wash-in (Baan, J., E. van der Velde, A. D. van Dijk and et al. 1992, In Cardiovascular system dynamics: Models and measurements. Anonymous Plenum Press, New York, 569; Kass, D. A. et al. 1986. Circulation 73:586-595) to calibrate the volume signal. This catheter was then replaced with a balloon occlusion catheter (Cordis) positioned in the IVC for acute preload reduction for pressure-volume analysis.
A combined manometer-conductance catheter was positioned in the left ventricle for continuous measurement of volume and pressures in the ventricle and aorta. Volume was calibrated with measurement of cardiac output and hypertonic saline wash-in. In addition, dogs were acutely instrumented a doppler flow velocimeter probe and an angiography catheter in the left circumflex coronary artery to measure coronary flow velocity and coronary diameter. […]

[2] = system: LV contractility in conscious dogs; assay: cardiac performance in conscious dogs before and after pacing-induced heart failure (pressure-dimension relations); type: in vivo; details: for PRSW (slope of stroke work/end-diastolic dimension relation): 200 mg infused over 30 minutes in the right atrium
From the text: 1. Surgical preparation for chronic dog protocol. Male mongrel dogs (20-30 kg) were anesthetized with 1-2% halothane after induction with sodium pentothal. The chest was opened via a lateral thoracotomy, and indwelling catheters (Tygon; Norton Plastics and Synthetic Division) were secured in the right atrium (for drug infusion) and in the descending aorta (for pressure measurement). An indwelling high fidelity micromanometer (P22, Konigsberg Instruments) was placed in the left ventricle (LV) through an apical stab. […] Pacing leads were attached to the left atrium for acute pacing during experimentation, and epicardial leads for chronic pacing were attached to the right ventricular free wall and connected to a programmable pacemaker (Spectrax, Medtronics) within a subcutaneous pocket. The chest was closed in layers, catheters and leads were externalized to the mid-scapulae, and protected by an external jacket. Analgesia (morphine, 10 mg s.c.) was given in the immediate postoperative period as necessary. Antibiotics were administered for the first 72 hours after surgery. The dogs were allowed to recover fully for 7-10 postoperative days before experimentation. The surgical and experimental protocol was approved by Johns Hopkins School of Medicine Animal Care and Use Committee.
3. Heart failure was induced by chronic rapid ventricular pacing at a rate of 210 bpm for 3 weeks, followed by 240 bpm for one week. […] Acute pacing (140 bpm) was used to keep heart rate constant during the experiments.
a. The analysis of pressure-dimension relationships and the arterial pressure response allowed the evaluation of variables related to myocardial systolic and diastolic performance. […] Preload was indexed as the left ventricular end diastolic anterior -posterior short axis dimension (LVEDD) or the LV end-diastolic volume from the conductance catheter. Afterload was evaluated as effective arterial elastance (Ea, ratio of LV systolic pressure to stroke dimension (Kass, D. A. 1997, Myocardial Mechanics. In Heart Failure. P. Poole-Wilson et al., eds. Churchill Livingstone, New York. 87-108; Kelly, R. P., C. T. Ting, and T. M. Yang. 1992, Circulation 86:513-521). This parameter is not preload-dependent and has been validated to reflect total afterload, which incorporates systemic vascular resistance, aortic impedance, and the reflected wave properties of the vasculature. Contractility was indexed by +dP/dt and the load-independent parameter, preload-recruitable stroke work (PRSW; slope of stoke work/end-diastolic dimension relation) (Kass, D. A., 1986, Circulation 73:586-595). Diastolic performance was measured by peak −dP/dt, time to peak filling rate (ttpf), and the time constant of relaxation (tau). Tau was calculated using the method of Weiss and colleagues (Ingwall, J. S. 1993, Circulation 87:VII-58-VII-62.).
(§1) The ECG was continuously monitored.

[3] = plasma level estimate in 25 kg dogs; type: in vivo; details: 200 mg i.v. in 25 kg dogs
From the text: as §1

[4] = after a standard dose (300 mg p.o.); cited from earlier work
[5] = system: phosphodiesterase; details: stated as well established; cited from earlier work
[6] = system: rat cardiac muscle; assay: in vitro calcium-sensitizing assay: contractile force and fura-2 [Ca2+]i in rat cardiac muscle
[7] = system: cardiac muscle; assay: steady-state analysis of calcium sensitivity (steady-state force versus steady-state [Ca2+]i); type: cell-based, rat; details: for effects on calcium sensitivity, comparison of the two agents: FIG. 4
From the text: A particularly rigorous method of assessing calcium sensitivity is by steady-state analysis by procedures disclosed in Gao, W. D. et al., supra. […] That response represents defining characteristics of a calcium-sensitizing agent.

[8] = value used for the dose extrapolation in 25 kg dogs; cited from earlier work

SMILES: CC(CCc1ccc(O)cc1)NCCc1ccc(O)c(O)c1 (centres unmarked) [dobutamine]
- increase of oxygen consumption ([1]; heart failure dogs, infusion 10 μg/Kg/min, p=0.007): 145±53.0%
- change of SW/MVO2 ([1]; heart failure dogs, infusion 10 μg/Kg/min, p=0.05): −29.3±6.8%
- mechanical efficiency ([1]; heart failure dogs, infusion 10 μg/Kg/min, FIG. 9): significant decrease in mechanical efficiency

SMILES: Oc1ncnc2[nH]ncc12 [allopurinol, 4-hydroxy-pyrazolo[3,4-d]pyrimidine]
- effect on healthy dogs ([2]; acted only in dogs with heart failure): did not adversely affect healthy dogs
- PRSW (slope of stroke work/end-diastolic dimension relation) ([2]; after pacing-induced heart failure): increased the slope after heart failure
- change of (dP/dt)max at the peak response ([2]; control dogs (n=10), 10 min after end of infusion, p=0.01): +8.3±3.2%
- (dP/dt)max at the peak response ([2]; control dogs (n=10), 10 min after end of infusion, base line value 3101±162): 3373±225 mm Hg/s
- PRSW (slope of stroke work/end-diastolic dimension relation) ([2]; control dogs): did not affect the slope of the PRSW relation; also recorded: not significantly changed
- effect on diastolic function ([2]; in vivo use, dogs): no adverse effect on diastolic function
- oxygen utilization ([1]; failing canine left ventricle, 200 mg iv): decreases oxygen utilization
- myocardial arterio-venous oxygen difference ([1]; heart failure dogs, 200 mg iv): not changed
- change in left circumflex blood flow ([1]; heart failure dogs, 10 min post-infusion of 200 mg iv over 30 minutes, p=0.0015): −40±6%
- plasma level estimated to be attained [3]: 4.5 mg/L
- plasma levels achieved in humans [4]: 3 to 9 mg/L
- phosphodiesterase inhibition [5]: no phosphodiesterase inhibition
- calcium ion concentration ([Ca2+]i) ([6]; fura-2, FIG. 1): decreasing calcium ion concentration
- contractile force ([6]; relative to control not exposed, FIG. 1): increases contractile force
- effects on calcium sensitivity, comparison of the two agents [7]: essentially indistinguishable effects on calcium sensitivity
- maximal force ([7]; steady-state analysis, FIG. 2): increased maximal force
- contractile activation curve (steady-state force vs steady-state [Ca2+]i) ([7]; versus control muscles exposed to no drug, FIG. 2): shifted the contractile activation curve to lower [Ca^2+]i
- distribution volume [8]: 1.6 L/kg

SMILES: Oc1nc(O)c2cn[nH]c2n1 [oxypurinol, 4,6-dihydroxypyrazolo[3,4-d]pyrimidine]
- effects on calcium sensitivity, comparison of the two agents [7]: essentially indistinguishable effects on calcium sensitivity
- force at any given [Ca2+]i ([7]; treated versus control muscles, FIG. 3): generate more force at any given [Ca^2+]i than control muscles

From patent US6569862B1, “Methods for treatment of disorders of cardiac contractility” (Johns Hopkins University, priority 1997, dated 2003)
